Molecules are shown by their SMILES.

Common to all, as to experiment: Test A pre-/postemergence greenhouse herbicide test, visual injury rating 0-100
Common to all, as to type: in vivo

Test [1] relates to wheat (Triticum aestivum). An excerpt: (§1) Seeds of plant species selected from barnyardgrass (Echinochloa crus-galli), large (Lg) crabgrass (Digitaria sanguinalis), giant foxtail (Setaria faberii), morningglory (Ipomoea spp.), pigweed (Amaranthus retroflexus), velvetleaf (Abutilon theophrasti), wheat (Triticum aestivum), and corn (Zea mays) were planted into a blend of loam soil and sand and treated preemergence with a directed soil spray using test chemicals formulated in a non-phytotoxic solvent mixture which included a surfactant. At the same time these species were also treated with postemergence applications of test chemicals formulated in the same manner. Plants ranged in height from 2 to 10 cm and were in the one- to two-leaf stage for the postemergence treatment. Treated plants and untreated controls were maintained in a greenhouse for approximately 10 days, after which time all treated plants were compared to untreated controls and visually evaluated for injury. Plant response ratings, summarized in Table A, are based on a 0 to 100 scale where 0 is no effect and 100 is complete control. A dash (-) response means no test result.

The test system of test [2] is pigweed (Amaranthus retroflexus).
From the text: as §1

Test [3] relates to giant foxtail (Setaria faberii).
From the text: as §1

In test [4] the test system is barnyardgrass (Echinochloa crus-galli).
From the text: as §1

The next test has as its system corn (Zea mays).
From the text: as §1

For test [5], the system named is morningglory (Ipomoea spp.).
From the text: as §1

In test [6] the test system is velvetleaf (Abutilon theophrasti).
From the text: as §1

Test [7] has as its system large (Lg) crabgrass (Digitaria sanguinalis).
From the text: as §1

`N=C(c1ccccc1)c1c[nH]nc1-c1cc(Cl)cc(Cl)c1` [Compound 68]: the “Plant response rating (0 to 100 scale), Wheat” value in test [1] (Postemergence, 1000 g ai/ha) is reported as 0; in test [1] (Preemergence, 1000 g ai/ha), 0. The “Plant response rating (0 to 100 scale), Pigweed” value in test [2] (Postemergence, 1000 g ai/ha) amounted to 100; in test [2] (Preemergence, 1000 g ai/ha), 100. The “Plant response rating (0 to 100 scale), Foxtail, Giant” value worked out at 0 in test [3] (Postemergence, 1000 g ai/ha) and 0 in test [3] (Preemergence, 1000 g ai/ha). Moreover, the “Plant response rating (0 to 100 scale), Barnyardgrass” value was determined as 0 in test [4] (Postemergence, 1000 g ai/ha) and 0 in test [4] (Preemergence, 1000 g ai/ha). Besides, the “Plant response rating (0 to 100 scale), Corn” value with corn (Zea mays) (Postemergence, 1000 g ai/ha) worked out at 0; with corn (Zea mays) (Preemergence, 1000 g ai/ha), 0. The “Plant response rating (0 to 100 scale), Morningglory” value in test [5] (Postemergence, 1000 g ai/ha) was found to be 0; in test [5] (Preemergence, 1000 g ai/ha), 0. Moreover, the “Plant response rating (0 to 100 scale), Velvetleaf” value in test [6] (Postemergence, 1000 g ai/ha) is recorded as 90; in test [6] (Preemergence, 1000 g ai/ha), 100. For the same molecule, the “Plant response rating (0 to 100 scale), Crabgrass, Large” value stood at 0 in test [7] (Postemergence, 1000 g ai/ha) and 0 in test [7] (Preemergence, 1000 g ai/ha).
In the case of `CON=C(c1ccccc1)c1c[nH]nc1-c1cc(Br)cc(Br)c1` [Compound 29], the “Plant response rating (0 to 100 scale), Wheat” value in test [1] (Postemergence, 1000 g ai/ha) amounted to 0; in test [1] (Preemergence, 1000 g ai/ha), 0. For the same molecule, the “Plant response rating (0 to 100 scale), Pigweed” value in test [2] (Postemergence, 1000 g ai/ha) is given as 90; in test [2] (Preemergence, 1000 g ai/ha), 40. The “Plant response rating (0 to 100 scale), Foxtail, Giant” value in test [3] (Postemergence, 1000 g ai/ha) was determined as 10; in test [3] (Preemergence, 1000 g ai/ha), 0. Also, the “Plant response rating (0 to 100 scale), Barnyardgrass” value is given as 0 in test [4] (Postemergence, 1000 g ai/ha) and 0 in test [4] (Preemergence, 1000 g ai/ha). Moreover, the “Plant response rating (0 to 100 scale), Corn” value worked out at 0 in the test on corn (Zea mays) (Postemergence, 1000 g ai/ha) and 0 in the test with corn (Zea mays) (Preemergence, 1000 g ai/ha). Further, the “Plant response rating (0 to 100 scale), Morningglory” value came out at 0 in test [5] (Postemergence, 1000 g ai/ha) and 0 in test [5] (Preemergence, 1000 g ai/ha). The “Plant response rating (0 to 100 scale), Velvetleaf” value in test [6] (Postemergence, 1000 g ai/ha) came out at 90; in test [6] (Preemergence, 1000 g ai/ha), 70. The “Plant response rating (0 to 100 scale), Crabgrass, Large” value amounted to 0 in test [7] (Postemergence, 1000 g ai/ha) and 0 in test [7] (Preemergence, 1000 g ai/ha).
`Clc1cc(Cl)cc(-c2n[nH]cc2C2(c3ccccc3)SCCS2)c1` [Compound 69]: the “Plant response rating (0 to 100 scale), Wheat” value in test [1] (Postemergence, 125 g ai/ha) is 0; in test [1] (Postemergence, 500 g ai/ha) it was 0. Besides, the “Wheat plant response rating (0 = no effect, 100 = complete control)” value in test [1] (Preemergence, 125 g ai/ha) is 0. Moreover, the “Plant response rating (0 to 100 scale), Pigweed” value in test [2] (Postemergence, 125 g ai/ha) is listed as 30; in test [2] (Postemergence, 500 g ai/ha) it was 80; in test [2] (Preemergence, 500 g ai/ha), 40. For the same molecule, the “Pigweed plant response rating (0 = no effect, 100 = complete control)” value in test [2] (Preemergence, 125 g ai/ha) is 0. The “Plant response rating (0 to 100 scale), Foxtail, Giant” value in test [3] (Postemergence, 125 g ai/ha) is 0; in test [3] (Postemergence, 500 g ai/ha), 0; in test [3] (Preemergence, 500 g ai/ha), 0. The “Foxtail, Giant plant response rating (0 = no effect, 100 = complete control)” value in test [3] (Preemergence, 125 g ai/ha) was 0. For the same molecule, the “Plant response rating (0 to 100 scale), Barnyardgrass” value in test [4] (Postemergence, 125 g ai/ha) was determined as 0; in test [4] (Postemergence, 500 g ai/ha) it was 0; in test [4] (Preemergence, 500 g ai/ha), 0. Also, the “Barnyardgrass plant response rating (0 = no effect, 100 = complete control)” value in test [4] (Preemergence, 125 g ai/ha) is 0. Also, the “Plant response rating (0 to 100 scale), Corn” value in the test with corn (Zea mays) (Postemergence, 125 g ai/ha) stood at 0; in the test with corn (Zea mays) (Postemergence, 500 g ai/ha) it was 0; in the test with corn (Zea mays) (Preemergence, 500 g ai/ha) it was 0. In addition, the “Corn plant response rating (0 = no effect, 100 = complete control)” value in the test on corn (Zea mays) (Preemergence, 125 g ai/ha) came out at 0. Moreover, the “Plant response rating (0 to 100 scale), Morningglory” value in test [5] (Postemergence, 125 g ai/ha) amounted to 0; in test [5] (Postemergence, 500 g ai/ha), 0; in test [5] (Preemergence, 500 g ai/ha) it was 0. The “Morningglory plant response rating (0 = no effect, 100 = complete control)” value in test [5] (Preemergence, 125 g ai/ha) is listed as 0. Moreover, the “Plant response rating (0 to 100 scale), Velvetleaf” value in test [6] (Postemergence, 125 g ai/ha) is 20; in test [6] (Postemergence, 500 g ai/ha), 80; in test [6] (Preemergence, 500 g ai/ha), 20. Besides, the “Velvetleaf plant response rating (0 = no effect, 100 = complete control)” value in test [6] (Preemergence, 125 g ai/ha) is 0. The “Plant response rating (0 to 100 scale), Crabgrass, Large” value was 0 in test [7] (Postemergence, 125 g ai/ha); 0 in test [7] (Postemergence, 500 g ai/ha); 0 in test [7] (Preemergence, 500 g ai/ha). Besides, the “Crabgrass, Large plant response rating (0 = no effect, 100 = complete control)” value in test [7] (Preemergence, 125 g ai/ha) is reported as 0.
For the molecule `Clc1cc(Cl)cc(-c2n[nH]cc2C2(c3ccccc3)SCCCS2)c1` [Compound 63], the “Plant response rating (0 to 100 scale), Wheat” value worked out at 0 in test [1] (Postemergence, 125 g ai/ha) and 0 in test [1] (Postemergence, 500 g ai/ha). Further, in test [1] (Preemergence, 125 g ai/ha), the “Wheat plant response rating (0 = no effect, 100 = complete control)” value stood at 0. Also, the “Plant response rating (0 to 100 scale), Pigweed” value worked out at 20 in test [2] (Postemergence, 125 g ai/ha); 80 in test [2] (Postemergence, 500 g ai/ha); 60 in test [2] (Preemergence, 500 g ai/ha). In test [2] (Preemergence, 125 g ai/ha), the “Pigweed plant response rating (0 = no effect, 100 = complete control)” value was 0. Moreover, the “Plant response rating (0 to 100 scale), Foxtail, Giant” value in test [3] (Postemergence, 125 g ai/ha) came out at 0; in test [3] (Postemergence, 500 g ai/ha), 0; in test [3] (Preemergence, 500 g ai/ha) it was 0. The “Foxtail, Giant plant response rating (0 = no effect, 100 = complete control)” value in test [3] (Preemergence, 125 g ai/ha) came to 0. The “Plant response rating (0 to 100 scale), Barnyardgrass” value is recorded as 0 in test [4] (Postemergence, 125 g ai/ha); 0 in test [4] (Postemergence, 500 g ai/ha); 0 in test [4] (Preemergence, 500 g ai/ha). For the same molecule, the “Barnyardgrass plant response rating (0 = no effect, 100 = complete control)” value in test [4] (Preemergence, 125 g ai/ha) is on record as 0. In addition, the “Plant response rating (0 to 100 scale), Corn” value was determined as 0 in the test on corn (Zea mays) (Postemergence, 125 g ai/ha); 0 in the test with corn (Zea mays) (Postemergence, 500 g ai/ha); 0 with corn (Zea mays) (Preemergence, 500 g ai/ha). The “Corn plant response rating (0 = no effect, 100 = complete control)” value with corn (Zea mays) (Preemergence, 125 g ai/ha) is recorded as 0. Moreover, the “Plant response rating (0 to 100 scale), Morningglory” value in test [5] (Postemergence, 125 g ai/ha) was determined as 0; in test [5] (Postemergence, 500 g ai/ha), 0; in test [5] (Preemergence, 500 g ai/ha), 0. The “Morningglory plant response rating (0 = no effect, 100 = complete control)” value in test [5] (Preemergence, 125 g ai/ha) worked out at 0. Also, the “Plant response rating (0 to 100 scale), Velvetleaf” value was determined as 10 in test [6] (Postemergence, 125 g ai/ha); 60 in test [6] (Postemergence, 500 g ai/ha); 0 in test [6] (Preemergence, 500 g ai/ha). In test [6] (Preemergence, 125 g ai/ha), the “Velvetleaf plant response rating (0 = no effect, 100 = complete control)” value amounted to 0. In addition, the “Plant response rating (0 to 100 scale), Crabgrass, Large” value in test [7] (Postemergence, 125 g ai/ha) is on record as 0; in test [7] (Postemergence, 500 g ai/ha), 0; in test [7] (Preemergence, 500 g ai/ha), 0. For the same molecule, the “Crabgrass, Large plant response rating (0 = no effect, 100 = complete control)” value in test [7] (Preemergence, 125 g ai/ha) stood at 0.

The values are drawn from patent publication US10167262B2, “Herbicidal substituted 3-arylpyrazoles” (FMC CORPORATION, priority 2014, dated 2019).
